From US20250340552A1, “COMPOUNDS, COMPOSITIONS AND METHODS OF TREATING DISORDERS” (HOTSPOT THERAPEUTICS, INC., priority 2022, published 2025)
Like-named read-outs stand apart in the source and are kept apart here.

Target: T1, Cbl-B (Homo sapiens, UniProt Q13191)
T1 construct: MSD-Based Assay for Degradation of Cbl-B in THP-1 Cells; endogenous in cells; host or cells: THP-1 (title) / Jurkat (protocol text)
Assay: MSD-based assay for degradation of Cbl-B in THP-1 cells
Assay type: cell-based
In short: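 Reported Dmax bins are A >70%, B 50–70%, C 30–50% and D <30%, from an electrochemiluminescence (MSD) sandwich assay of Cbl-B in cell lysates. THP-1 cells were exposed to compounds for 24 hours before lysis.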

[1] = Cbl-B degradation, Jurkat cells seeded (heading: THP-1 cells), 24 hours incubation, MSD readout
[2] = Cbl-B degradation, Jurkat cells seeded (heading: THP-1 cells), 24 hours incubation, MSD readout, read-out: Dmax

T1 sequence (Q13191 whole entry): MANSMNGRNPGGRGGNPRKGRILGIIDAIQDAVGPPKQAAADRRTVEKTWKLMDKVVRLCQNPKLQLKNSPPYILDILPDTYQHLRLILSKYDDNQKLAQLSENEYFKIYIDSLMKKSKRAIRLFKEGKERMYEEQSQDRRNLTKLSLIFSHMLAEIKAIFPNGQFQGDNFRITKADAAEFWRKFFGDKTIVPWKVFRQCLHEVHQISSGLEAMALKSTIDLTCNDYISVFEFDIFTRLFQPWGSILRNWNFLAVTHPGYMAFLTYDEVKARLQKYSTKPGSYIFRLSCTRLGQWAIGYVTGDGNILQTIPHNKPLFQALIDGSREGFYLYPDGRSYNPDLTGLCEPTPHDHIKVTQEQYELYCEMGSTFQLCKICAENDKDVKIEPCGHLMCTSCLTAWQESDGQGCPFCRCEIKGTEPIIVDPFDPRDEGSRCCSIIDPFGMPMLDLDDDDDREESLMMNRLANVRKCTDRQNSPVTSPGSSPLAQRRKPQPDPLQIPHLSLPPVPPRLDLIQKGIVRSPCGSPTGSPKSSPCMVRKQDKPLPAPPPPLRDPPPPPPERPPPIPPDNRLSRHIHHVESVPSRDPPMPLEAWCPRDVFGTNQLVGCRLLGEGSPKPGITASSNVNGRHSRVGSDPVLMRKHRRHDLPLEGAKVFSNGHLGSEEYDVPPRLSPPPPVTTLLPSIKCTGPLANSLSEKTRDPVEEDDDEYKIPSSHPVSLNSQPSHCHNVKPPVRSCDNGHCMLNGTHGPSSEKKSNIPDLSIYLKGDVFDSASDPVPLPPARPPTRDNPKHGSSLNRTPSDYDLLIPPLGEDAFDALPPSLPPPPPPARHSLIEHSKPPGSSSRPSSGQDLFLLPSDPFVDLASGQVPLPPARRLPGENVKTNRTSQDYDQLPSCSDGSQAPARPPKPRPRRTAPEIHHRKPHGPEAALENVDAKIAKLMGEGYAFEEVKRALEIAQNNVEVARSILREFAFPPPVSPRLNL

DC50 [1]	Dmax [2]	SMILES	Dmax (THP-1)
> 10000 nM	< 30%	CN(CCN(C)C(=O)c1ccc(C2CCN(c3ccc4c(c3)CN([C@H]3CCC(=O)NC3=O)C4=O)CC2)cc1)Cc1cc(C(F)(F)F)c2cn(-c3cccc([C@H](c4nncn4C)C4CCC4)c3)c(=O)n2c1 (single isomer, unassigned) [Compound 212]	–
> 10000 nM	< 30%	Cn1cnnc1[C@@H](c1cccc(-n2cc3c(C(F)(F)F)cc(CN4CCC(OCc5ccc(C6CCN(c7ccc8c(c7)CN([C@@H]7CCC(=O)NC7=O)C8=O)CC6)cc5)CC4)cn3c2=O)c1)C1CCC1 (single isomer, unassigned) [Compound 213]	–
30 to 300 nM	30 to 50%	Cn1cnnc1[C@@H](c1cccc(-n2cc3c(C(F)(F)F)cc(CN4CCC(OCc5ccc(C6CCN(c7ccc8c(c7)CN([C@H]7CCC(=O)NC7=O)C8=O)CC6)cc5)CC4)cn3c2=O)c1)C1CCC1 (single isomer, unassigned) [Compound 214]	–
300 to 1000 nM	30 to 50%	Cn1cnnc1[C@@H](c1cccc(-n2cc3c(C(F)(F)F)cc(CN4CCC(OCc5ccc(CC6CCN(c7ccc8c(c7)CN([C@@H]7CCC(=O)NC7=O)C8=O)CC6)cc5)CC4)cn3c2=O)c1)C1CCC1 (single isomer, unassigned) [Compound 217]	–
< 30 nM	> 70%	Cn1cnnc1[C@@H](c1cccc(-n2cc3c(C(F)(F)F)cc(CN4CCC(OCc5ccc(CC6CCN(c7ccc8c(c7)CN([C@H]7CCC(=O)NC7=O)C8=O)CC6)cc5)CC4)cn3c2=O)c1)C1CCC1 (single isomer, unassigned) [Compound 218]	–
30 to 300 nM	50 to 70%	Cn1cnnc1CC1(c2cccc(-n3cc4c(C(F)(F)F)cc(CN5CCC(OCCOCc6ccc(CN7CCN(c8ccc9c(c8)CN([C@@H]8CCC(=O)NC8=O)C9=O)CC7)cc6)CC5)cn4c3=O)c2)COC1 (single isomer, unassigned) [Compound 219]	–
< 30 nM	> 70%	Cn1cnnc1CC1(c2cccc(-n3cc4c(C(F)(F)F)cc(CN5CCC(OCCOCc6ccc(CN7CCN(c8ccc9c(c8)CN([C@H]8CCC(=O)NC8=O)C9=O)CC7)cc6)CC5)cn4c3=O)c2)COC1 (single isomer, unassigned) [Compound 220]	–
1000 to 10000 nM	30 to 50%	Cn1cnnc1[C@@H](c1cccc(-n2cc3c(C(F)(F)F)cc(CN4CCC(O[C@@H]5CCCN(C(=O)c6ccc(N7CCN(c8ccc9c(c8)CN([C@@H]8CCC(=O)NC8=O)C9=O)CC7)cc6)C5)CC4)cn3c2=O)c1)C1CCC1 (single isomer, unassigned) [Compound 225]	–
30 to 300 nM	> 70%	Cn1cnnc1[C@@H](c1cccc(-n2cc3c(C(F)(F)F)cc(CN4CCC(O[C@@H]5CCCN(C(=O)c6ccc(N7CCN(c8ccc9c(c8)CN([C@H]8CCC(=O)NC8=O)C9=O)CC7)cc6)C5)CC4)cn3c2=O)c1)C1CCC1 (single isomer, unassigned) [Compound 226]	–
< 30 nM	> 70%	Cn1cnnc1[C@@H](c1cccc(-n2cc3c(C(F)(F)F)cc(CN4CCN(CCc5ccc(C6CCN(c7ccc8c(c7)CN([C@H]7CCC(=O)NC7=O)C8=O)CC6)cc5)CC4)cn3c2=O)c1)C1CCC1 (single isomer, unassigned) [Compound 228]	–
< 30 nM	> 70%	CO[C@H]1C[C@](c2cccc(-n3cc4c(C(F)(F)F)cc(CN5CCC(OCc6ccc(CN7CCN(c8ccc9c(c8)CN([C@H]8CCC(=O)NC8=O)C9=O)CC7)cc6)CC5)cn4c3=O)c2)(c2nncn2C)C1 (single isomer, unassigned) [Compound 232]	–
–	–	Cn1cnnc1[C@@H](c1cccc(-n2cc3c(C(F)(F)F)cc(CN4CCC[C@@H](COCc5ccc(CN6CCN(c7ccc8c(c7)CN([C@H]7CCC(=O)NC7=O)C8=O)CC6)cc5)C4)cn3c2=O)c1)C1CCC1 (single isomer, unassigned) [Compound 234]	> 70%
30 to 300 nM	50 to 70%	Cn1cnnc1CC1(c2cccc(-n3cc4c(C(F)(F)F)cc(CN5CCC[C@@H](OCCc6ccc(CN7CCN(c8ccc9c(c8)CN([C@@H]8CCC(=O)NC8=O)C9=O)CC7)cc6)C5)cn4c3=O)c2)COC1 (single isomer, unassigned) [Compound 239]	–
< 30 nM	> 70%	Cn1cnnc1CC1(c2cccc(-n3cc4c(C(F)(F)F)cc(CN5CCC[C@@H](OCCc6ccc(CN7CCN(c8ccc9c(c8)CN([C@H]8CCC(=O)NC8=O)C9=O)CC7)cc6)C5)cn4c3=O)c2)COC1 (single isomer, unassigned) [Compound 240]	–
30 to 300 nM	> 70%	Cn1cnnc1CC1(c2cccc(-n3cc4c(C(F)(F)F)cc(CN5CCC(OCc6ccc(C(=O)N7CCN(c8ccc9c(c8)CN([C@@H]8CCC(=O)NC8=O)C9=O)CC7)cc6)CC5)cn4c3=O)c2)COC1 (single isomer, unassigned) [Compound 243]	–
< 30 nM	> 70%	Cn1cnnc1CC1(c2cccc(-n3cc4c(C(F)(F)F)cc(CN5CCC(OCc6ccc(C(=O)N7CCN(c8ccc9c(c8)CN([C@H]8CCC(=O)NC8=O)C9=O)CC7)cc6)CC5)cn4c3=O)c2)COC1 (single isomer, unassigned) [Compound 244]	–
< 30 nM	> 70%	CN(C(=O)c1ccc(CN2CCN(c3ccc4c(c3)CN([C@H]3CCC(=O)NC3=O)C4=O)CC2)cc1)C1CCN(Cc2cc(C(F)(F)F)c3cn(-c4cccc(C5(Cc6nncn6C)COC5)c4)c(=O)n3c2)CC1 (single isomer, unassigned) [Compound 246]	–
300 to 1000 nM	30 to 50%	Cn1cnnc1[C@@H](c1cccc(-n2cc3c(C(F)(F)F)cc(CN4CCC(O[C@H]5CCCN(C(=O)c6ccc(N7CCN(c8ccc9c(c8)CN([C@@H]8CCC(=O)NC8=O)C9=O)CC7)cc6)C5)CC4)cn3c2=O)c1)C1CCC1 (single isomer, unassigned) [Compound 247]	–
< 30 nM	> 70%	Cn1cnnc1[C@@H](c1cccc(-n2cc3c(C(F)(F)F)cc(CN4CCC(O[C@H]5CCCN(C(=O)c6ccc(N7CCN(c8ccc9c(c8)CN([C@H]8CCC(=O)NC8=O)C9=O)CC7)cc6)C5)CC4)cn3c2=O)c1)C1CCC1 (single isomer, unassigned) [Compound 248]	–
30 to 300 nM	30 to 50%	Cn1cnnc1CC1(c2cccc(-n3cc4c(C(F)(F)F)cc(CN5CCC(OCc6ccc(N7CCN(c8ccc9c(c8)CN([C@@H]8CCC(=O)NC8=O)C9=O)CC7)cc6)CC5)cn4c3=O)c2)COC1 (single isomer, unassigned) [Compound 249]	–
< 30 nM	50 to 70%	Cn1cnnc1CC1(c2cccc(-n3cc4c(C(F)(F)F)cc(CN5CCC(OCc6ccc(N7CCN(c8ccc9c(c8)CN([C@H]8CCC(=O)NC8=O)C9=O)CC7)cc6)CC5)cn4c3=O)c2)COC1 (single isomer, unassigned) [Compound 250]	–

SMILES	DC50 [1]	Dmax [2]	Dmax (THP-1)
CO[C@H]1C[C@](c2cccc(-n3cc4c(C(F)(F)F)cc(CN5CCC(OCc6ccc(CN7CCN(c8ccc9c(c8)CN([C@@H]8CCC(=O)NC8=O)C9=O)CC7)cc6)CC5)cn4c3=O)c2)(c2nncn2C)C1 (single isomer, unassigned) [Compound 231]	300 to 1000 nM	30 to 50%	–
CN(C(=O)c1ccc(CN2CCN(c3ccc4c(c3)CN([C@@H]3CCC(=O)NC3=O)C4=O)CC2)cc1)C1CCN(Cc2cc(C(F)(F)F)c3cn(-c4cccc(C5(Cc6nncn6C)COC5)c4)c(=O)n3c2)CC1 (single isomer, unassigned) [Compound 245]	300 to 1000 nM	30 to 50%	–
